Assay: excess molar enthalpy (molar enthalpy of mixing); xn = mol fraction of the nth substance listed
Conditions: 303.15 K, 101 kPa, Liquid

CNC(C)=O [N-methylacetamide] + Cc1cc(C)cc(C)c1
Conditions	excess molar enthalpy [kcal/mol]
x1 = 0.1463	0.0817
x1 = 0.2448	0.0927
x1 = 0.3271	0.103
x1 = 0.4098	0.105
x1 = 0.4989	0.104
x1 = 0.5612	0.0978
x1 = 0.6649	0.0837
x1 = 0.7283	0.0758
x1 = 0.8071	0.0607
x1 = 0.884	0.0421

CNC(C)=O [N-methylacetamide] + Cc1ccc(C)cc1
Conditions	excess molar enthalpy [kcal/mol]
x1 = 0.1224	0.0667
x1 = 0.1703	0.0696
x1 = 0.2407	0.0705
x1 = 0.3474	0.0705
x1 = 0.4018	0.0679
x1 = 0.4704	0.0624
x1 = 0.6138	0.0514
x1 = 0.7126	0.0402
x1 = 0.7529	0.0366
x1 = 0.8617	0.0198

CNC(C)=O [N-methylacetamide] + Cc1ccccc1
Conditions	excess molar enthalpy [kcal/mol]
x1 = 0.1142	0.0619
x1 = 0.2405	0.0619
x1 = 0.2954	0.0571
x1 = 0.377	0.0528
x1 = 0.4002	0.0521
x1 = 0.4365	0.0478
x1 = 0.4708	0.0442
x1 = 0.5227	0.0428
x1 = 0.5843	0.039
x1 = 0.6502	0.0301
x1 = 0.7076	0.0253
x1 = 0.7798	0.0179
x1 = 0.9016	0.00741

CNC(C)=O [N-methylacetamide] + c1ccccc1
Conditions	excess molar enthalpy [kcal/mol]
x1 = 0.0848	0.0511
x1 = 0.1579	0.0562
x1 = 0.2196	0.0576
x1 = 0.2809	0.0564
x1 = 0.3924	0.0516
x1 = 0.4282	0.0464
x1 = 0.4628	0.0421
x1 = 0.495	0.0392
x1 = 0.5438	0.0344
x1 = 0.567	0.0335
x1 = 0.6331	0.0294
x1 = 0.766	0.0172
x1 = 0.8432	0.0124
x1 = 0.8931	0.00837

CNC=O [N-methylformamide] + Cc1ccc(C)cc1
Conditions	excess molar enthalpy [kcal/mol]
x1 = 0.0589	0.0696
x1 = 0.0809	0.0789
x1 = 0.1371	0.105
x1 = 0.648	0.117
x1 = 0.7042	0.105
x1 = 0.7619	0.0911
x1 = 0.8196	0.0722
x1 = 0.8715	0.0533
x1 = 0.9536	0.0241

CNC=O [N-methylformamide] + Cc1ccccc1
Conditions	excess molar enthalpy [kcal/mol]
x1 = 0.1531	0.0975
x1 = 0.1852	0.102
x1 = 0.2625	0.11
x1 = 0.3018	0.112
x1 = 0.3404	0.115
x1 = 0.3983	0.115
x1 = 0.4643	0.116
x1 = 0.4821	0.114
x1 = 0.5253	0.11
x1 = 0.5951	0.103
x1 = 0.6171	0.102
x1 = 0.645	0.0961
x1 = 0.7416	0.0765
x1 = 0.8178	0.0574
x1 = 0.9166	0.0304

CNC=O [N-methylformamide] + c1ccccc1
Conditions	excess molar enthalpy [kcal/mol]
x1 = 0.0011	0.00263
x1 = 0.0019	0.00454
x1 = 0.1401	0.081
x1 = 0.2247	0.0918
x1 = 0.2851	0.0968
x1 = 0.3412	0.0994
x1 = 0.372	0.101
x1 = 0.428	0.0997
x1 = 0.4525	0.0978
x1 = 0.5333	0.0927
x1 = 0.6012	0.0837
x1 = 0.6365	0.0796
x1 = 0.7237	0.065
x1 = 0.8274	0.0425

Source: the NIST ThermoML archive (doi:10.1021/je700414c)
